The target in assay [1] is T1, Gastrin/cholecystokinin type B receptor (Homo sapiens, UniProt P32239).
T1 sequence (P32239 whole entry): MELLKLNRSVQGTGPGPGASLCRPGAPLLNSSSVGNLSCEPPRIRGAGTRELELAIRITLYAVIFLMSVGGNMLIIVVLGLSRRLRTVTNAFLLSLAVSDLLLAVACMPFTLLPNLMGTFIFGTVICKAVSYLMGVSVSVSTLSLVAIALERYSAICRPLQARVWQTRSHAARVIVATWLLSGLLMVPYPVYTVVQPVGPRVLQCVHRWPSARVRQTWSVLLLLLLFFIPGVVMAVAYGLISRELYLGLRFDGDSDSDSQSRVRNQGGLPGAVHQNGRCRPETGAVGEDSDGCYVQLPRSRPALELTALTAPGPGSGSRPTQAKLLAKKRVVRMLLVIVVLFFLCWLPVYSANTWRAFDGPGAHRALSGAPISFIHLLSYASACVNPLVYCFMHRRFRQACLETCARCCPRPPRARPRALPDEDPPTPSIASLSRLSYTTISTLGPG

For assay [2], the target named is Growth hormone secretagogue receptor type 1 (Homo sapiens, UniProt Q92847).
The target of assay [3] is Sodium-dependent noradrenaline transporter (Homo sapiens, UniProt P23975).
Assay [4] deals with T2, Type-1 angiotensin II receptor (Homo sapiens, UniProt P30556).
T2 sequence (P30556 whole entry): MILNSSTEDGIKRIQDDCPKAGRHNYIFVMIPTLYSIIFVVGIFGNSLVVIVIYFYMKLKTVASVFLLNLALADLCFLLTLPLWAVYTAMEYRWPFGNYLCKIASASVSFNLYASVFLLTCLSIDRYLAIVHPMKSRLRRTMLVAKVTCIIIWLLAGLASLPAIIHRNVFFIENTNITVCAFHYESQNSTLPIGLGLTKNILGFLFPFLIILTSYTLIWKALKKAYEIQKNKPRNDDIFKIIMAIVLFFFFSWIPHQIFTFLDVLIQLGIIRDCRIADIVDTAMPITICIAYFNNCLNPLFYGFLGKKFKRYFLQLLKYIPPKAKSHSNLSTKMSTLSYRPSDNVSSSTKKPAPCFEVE

In assay [5] the target is Melanocortin receptor 3 (Homo sapiens, UniProt P41968).
The target of assay [6] is T3, Alpha-1A adrenergic receptor (Homo sapiens, UniProt P35348).
T3 sequence (P35348 whole entry): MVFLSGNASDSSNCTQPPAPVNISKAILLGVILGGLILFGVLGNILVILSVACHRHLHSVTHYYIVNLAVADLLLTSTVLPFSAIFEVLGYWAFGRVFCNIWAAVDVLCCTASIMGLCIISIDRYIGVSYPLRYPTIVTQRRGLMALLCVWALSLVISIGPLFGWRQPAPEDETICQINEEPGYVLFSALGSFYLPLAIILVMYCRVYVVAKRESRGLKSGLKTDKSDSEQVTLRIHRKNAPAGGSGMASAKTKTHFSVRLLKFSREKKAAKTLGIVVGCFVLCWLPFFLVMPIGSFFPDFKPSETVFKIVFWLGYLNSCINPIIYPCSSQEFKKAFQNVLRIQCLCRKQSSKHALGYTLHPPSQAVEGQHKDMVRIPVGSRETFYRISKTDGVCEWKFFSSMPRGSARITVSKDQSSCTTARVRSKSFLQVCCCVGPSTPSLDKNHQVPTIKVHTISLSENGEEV
The assay is classed as functional, cell-based.

The target of assay [7] is T4, Alpha-2B adrenergic receptor (Homo sapiens, UniProt P18089).
T4 sequence (P18089 whole entry): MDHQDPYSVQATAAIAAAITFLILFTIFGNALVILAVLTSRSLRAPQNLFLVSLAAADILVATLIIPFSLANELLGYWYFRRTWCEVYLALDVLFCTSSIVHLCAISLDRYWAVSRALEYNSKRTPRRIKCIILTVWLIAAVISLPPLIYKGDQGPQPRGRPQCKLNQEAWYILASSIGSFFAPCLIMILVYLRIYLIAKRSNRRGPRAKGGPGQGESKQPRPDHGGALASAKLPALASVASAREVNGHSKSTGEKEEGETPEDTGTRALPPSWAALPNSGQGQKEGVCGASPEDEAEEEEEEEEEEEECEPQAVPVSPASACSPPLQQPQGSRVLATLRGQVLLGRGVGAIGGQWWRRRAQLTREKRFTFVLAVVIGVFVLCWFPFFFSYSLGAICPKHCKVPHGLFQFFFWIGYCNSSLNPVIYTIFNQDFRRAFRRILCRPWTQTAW

For assay [8], the target named is D(1A) dopamine receptor (Homo sapiens, UniProt P21728). The assay is classed as functional, cell-based.
Assay [9] deals with Gamma-aminobutyric acid receptor subunit alpha-1 (Rattus norvegicus, UniProt P62813). The class given is functional.
Assay [10] has as its target T5, Thromboxane A2 receptor (Homo sapiens, UniProt P21731).
T5 sequence (P21731 whole entry): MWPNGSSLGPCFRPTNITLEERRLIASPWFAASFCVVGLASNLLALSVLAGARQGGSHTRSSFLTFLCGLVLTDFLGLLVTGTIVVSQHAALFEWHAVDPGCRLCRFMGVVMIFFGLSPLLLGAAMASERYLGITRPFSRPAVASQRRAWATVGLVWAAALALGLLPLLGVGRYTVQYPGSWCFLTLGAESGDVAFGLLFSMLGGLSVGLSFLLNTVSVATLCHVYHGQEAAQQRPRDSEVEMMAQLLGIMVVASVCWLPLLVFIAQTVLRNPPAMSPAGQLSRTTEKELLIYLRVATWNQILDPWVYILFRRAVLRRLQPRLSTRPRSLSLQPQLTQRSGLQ

Assay [11] concerns the target T6, 5-hydroxytryptamine receptor 1A (Homo sapiens, UniProt P08908).
T6 sequence (P08908 whole entry): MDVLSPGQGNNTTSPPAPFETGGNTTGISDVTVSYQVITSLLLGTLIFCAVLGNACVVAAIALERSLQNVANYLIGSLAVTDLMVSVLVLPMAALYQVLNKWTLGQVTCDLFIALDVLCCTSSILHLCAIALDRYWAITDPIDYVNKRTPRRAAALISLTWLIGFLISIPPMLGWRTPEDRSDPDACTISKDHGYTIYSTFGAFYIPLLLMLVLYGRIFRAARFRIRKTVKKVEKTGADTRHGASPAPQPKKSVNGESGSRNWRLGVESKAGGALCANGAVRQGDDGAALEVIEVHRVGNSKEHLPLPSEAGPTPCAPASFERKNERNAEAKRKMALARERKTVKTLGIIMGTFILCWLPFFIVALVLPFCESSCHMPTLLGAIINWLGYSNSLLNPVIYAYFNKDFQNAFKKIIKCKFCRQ
The class given is functional, cell-based.

Assay [12] has as its target Beta-2 adrenergic receptor (Homo sapiens, UniProt P07550). The class given is functional, cell-based.

The term AC50 denotes the concentration giving half of the maximal activity seen. Low readings indicate activity at low concentration, high ones activity only at high concentration.

Some results are limits rather than exact numbers.
Further: assay procedure not described here.

Sequence of Beta-2 adrenergic receptor (P07550 whole entry): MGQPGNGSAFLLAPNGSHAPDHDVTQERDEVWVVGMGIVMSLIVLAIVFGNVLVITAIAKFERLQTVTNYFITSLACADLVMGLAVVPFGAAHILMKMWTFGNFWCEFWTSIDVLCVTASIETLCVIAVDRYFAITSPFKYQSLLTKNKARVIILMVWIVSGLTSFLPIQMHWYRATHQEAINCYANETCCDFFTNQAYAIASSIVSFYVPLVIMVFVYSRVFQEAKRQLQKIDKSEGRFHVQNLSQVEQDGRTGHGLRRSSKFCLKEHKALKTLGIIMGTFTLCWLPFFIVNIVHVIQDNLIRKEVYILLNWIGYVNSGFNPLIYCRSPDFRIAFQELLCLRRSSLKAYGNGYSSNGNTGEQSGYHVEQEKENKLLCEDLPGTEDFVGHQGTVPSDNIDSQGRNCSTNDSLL
Sequence of Growth hormone secretagogue receptor type 1 (Q92847 whole entry): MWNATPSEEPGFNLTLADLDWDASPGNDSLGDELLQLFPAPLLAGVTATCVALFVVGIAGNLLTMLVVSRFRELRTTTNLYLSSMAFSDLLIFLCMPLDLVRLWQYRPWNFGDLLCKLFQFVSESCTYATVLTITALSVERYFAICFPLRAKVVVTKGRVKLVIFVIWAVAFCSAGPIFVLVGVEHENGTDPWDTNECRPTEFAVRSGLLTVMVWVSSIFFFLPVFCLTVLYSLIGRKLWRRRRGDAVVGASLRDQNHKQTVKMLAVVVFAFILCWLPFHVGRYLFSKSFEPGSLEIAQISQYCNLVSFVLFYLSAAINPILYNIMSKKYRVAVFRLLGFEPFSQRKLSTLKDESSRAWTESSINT
Sequence of Sodium-dependent noradrenaline transporter (P23975 whole entry): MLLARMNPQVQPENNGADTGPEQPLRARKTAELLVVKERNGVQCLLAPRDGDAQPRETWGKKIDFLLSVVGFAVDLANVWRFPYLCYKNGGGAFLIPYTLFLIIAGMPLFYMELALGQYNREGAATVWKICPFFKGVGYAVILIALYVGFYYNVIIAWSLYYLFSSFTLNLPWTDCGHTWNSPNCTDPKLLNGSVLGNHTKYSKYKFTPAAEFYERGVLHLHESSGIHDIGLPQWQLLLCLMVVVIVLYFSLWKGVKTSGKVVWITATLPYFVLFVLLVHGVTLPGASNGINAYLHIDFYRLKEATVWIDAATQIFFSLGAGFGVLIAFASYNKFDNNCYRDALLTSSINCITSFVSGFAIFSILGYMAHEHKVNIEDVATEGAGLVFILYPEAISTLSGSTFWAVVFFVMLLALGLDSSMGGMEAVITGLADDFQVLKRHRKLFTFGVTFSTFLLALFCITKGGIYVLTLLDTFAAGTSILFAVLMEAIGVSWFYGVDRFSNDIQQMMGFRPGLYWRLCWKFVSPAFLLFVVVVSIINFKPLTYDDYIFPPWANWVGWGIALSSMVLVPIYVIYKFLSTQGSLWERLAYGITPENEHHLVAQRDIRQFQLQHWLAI
Sequence of D(1A) dopamine receptor (P21728 whole entry): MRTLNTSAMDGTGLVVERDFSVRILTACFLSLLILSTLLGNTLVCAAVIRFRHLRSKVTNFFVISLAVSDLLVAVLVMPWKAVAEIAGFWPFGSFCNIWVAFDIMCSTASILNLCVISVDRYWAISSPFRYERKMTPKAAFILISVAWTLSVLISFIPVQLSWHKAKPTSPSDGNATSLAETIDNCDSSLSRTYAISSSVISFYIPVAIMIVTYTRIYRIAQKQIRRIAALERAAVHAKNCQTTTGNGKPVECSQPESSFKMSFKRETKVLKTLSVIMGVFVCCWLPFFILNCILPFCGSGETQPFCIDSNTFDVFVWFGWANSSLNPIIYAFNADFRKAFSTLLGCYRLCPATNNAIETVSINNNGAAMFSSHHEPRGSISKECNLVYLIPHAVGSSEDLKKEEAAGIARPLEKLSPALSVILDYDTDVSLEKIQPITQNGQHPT
Sequence of Melanocortin receptor 3 (P41968 whole entry): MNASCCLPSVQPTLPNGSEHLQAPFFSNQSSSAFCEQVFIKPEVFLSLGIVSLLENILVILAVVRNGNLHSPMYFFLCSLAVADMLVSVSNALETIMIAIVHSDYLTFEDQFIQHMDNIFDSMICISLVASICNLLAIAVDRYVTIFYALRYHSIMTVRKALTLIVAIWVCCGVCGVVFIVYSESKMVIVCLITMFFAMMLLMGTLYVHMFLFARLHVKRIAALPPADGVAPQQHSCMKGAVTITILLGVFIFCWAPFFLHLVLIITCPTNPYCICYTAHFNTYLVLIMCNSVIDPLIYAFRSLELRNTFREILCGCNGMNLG
Sequence of Gamma-aminobutyric acid receptor subunit alpha-1 (P62813 whole entry): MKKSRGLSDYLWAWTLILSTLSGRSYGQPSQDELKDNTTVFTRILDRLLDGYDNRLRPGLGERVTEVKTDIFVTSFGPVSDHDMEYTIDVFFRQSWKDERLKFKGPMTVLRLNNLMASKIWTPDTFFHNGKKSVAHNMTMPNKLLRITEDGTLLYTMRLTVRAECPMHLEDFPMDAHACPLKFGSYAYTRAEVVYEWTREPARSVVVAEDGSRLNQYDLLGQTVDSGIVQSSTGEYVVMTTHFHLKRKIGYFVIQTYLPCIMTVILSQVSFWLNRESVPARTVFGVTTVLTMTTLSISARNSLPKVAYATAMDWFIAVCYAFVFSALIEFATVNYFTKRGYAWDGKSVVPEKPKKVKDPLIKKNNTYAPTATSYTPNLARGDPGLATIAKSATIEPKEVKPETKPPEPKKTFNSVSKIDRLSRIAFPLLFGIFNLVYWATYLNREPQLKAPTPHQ

As to `CCC(CC)(CC(=O)Nc1cccc(/C=C/c2nc(C3CCC3)cs2)c1)C(=O)O`, the AC50 in [1], in [2], in assay [3], in [4] and in [5] was greater than 30 µM each time.

For the molecule `CCCCCNC(=N)N/N=C/c1c[nH]c2ccc(OC)cc12` [TEGASEROD], the AC50 in assay [6] is 2.1 µM; in assay [7], 3.37 µM; in assay [1], greater than 30 µM; in [2], 11.4 µM; in assay [3] it was 0.495 µM; in assay [8], 0.34 µM. Further, the AC50 is 1.8 µM in assay [4]; 11.5 µM in assay [5]; 13 µM in assay [9]; 8.39 µM in assay [10]; greater than 30 µM in assay [11].

In the case of `COc1cc2nc(N3CCN(C(=O)c4ccco4)CC3)nc(N)c2cc1OC` [PRAZOSIN], the AC50 was greater than 30 µM in assay [1]; greater than 30 µM in assay [2]; greater than 10 µM in assay [3]; greater than 10 µM in assay [8]; 7.8 µM in assay [4]; greater than 30 µM in [5]. Besides, the results for the AC50 in [9] and in [10] were greater than 10 µM and greater than 30 µM, respectively.

`COc1ccccc1N1CCN(CC(O)COc2cccc3ccccc23)CC1` (centres undefined) [NAFTOPIDIL]: the AC50 was 0.46 µM in [6]; 0.3 µM in [7]; 9.6 µM in [3]; greater than 30 µM in assay [8]; greater than 30 µM in assay [5]; greater than 30 µM in [9]. Besides, the AC50 in [10], in assay [12] and in assay [11] was greater than 30 µM throughout.

As to `O=[N+]([O-])O[C@@H]1CO[C@H]2[C@@H]1OC[C@@H]2O` [ISOSORBIDE MONONITRATE], the AC50 in assay [7] is greater than 10 µM; in assay [1] it was greater than 30 µM; in assay [2], greater than 30 µM; in assay [3], greater than 10 µM; in assay [8] it was greater than 10 µM; in assay [4], greater than 30 µM. Further, the AC50 in [5] is greater than 30 µM; in [9] it was greater than 10 µM; in assay [10] it was greater than 30 µM; in assay [11], greater than 10 µM.

`CN1CCN(C2=Nc3ccccc3Sc3ccc(Cl)cc32)CC1` [CLOTHIAPINE]: the AC50 in [6] was 1.2 µM; in assay [7] it was 1.3 µM; in assay [8] it was greater than 30 µM; in assay [9], greater than 30 µM; in [12], greater than 30 µM; in [11], greater than 30 µM.

`O=[N+]([O-])c1cn2c(n1)OC[C@@H](OCc1ccc(OC(F)(F)F)cc1)C2` [PRETOMANID]: the AC50 is greater than 10 µM in assay [7]; greater than 30 µM in assay [1]; greater than 30 µM in [2]; greater than 10 µM in [3]; greater than 30 µM in assay [4]; greater than 30 µM in assay [5]. For the same molecule, the values for the AC50 in assay [9] and in assay [10] were greater than 10 µM and greater than 30 µM, respectively.

Consider `C=CCN1C[C@H](C(=O)N(CCCN(C)C)C(=O)NCC)C[C@@H]2c3cccc4[nH]cc(c34)C[C@H]21` [CABERGOLINE], for which the AC50 in assay [2] is greater than 10 µM; in [3], 8.7 µM; in assay [8], 0.0367 µM; in assay [4] it was greater than 10 µM; in [5], greater than 10 µM; in assay [9], greater than 10 µM. Further, the AC50 is greater than 10 µM in assay [10], greater than 30 µM in assay [12] and 0.162 µM in assay [11].

`CC(=O)c1ccc2c(c1)N(CCCN(C)C)c1ccccc1S2` [ACEPROMAZINE] had an AC50 in assay [8] greater than 30 µM.

Take `CCOc1ccc(Cc2cc([C@@H]3O[C@H](CO)[C@@H](O)[C@H](O)[C@H]3O)ccc2Cl)cc1` [DAPAGLIFLOZIN]: the AC50 is greater than 10 µM in assay [7]; greater than 30 µM in assay [1]; greater than 30 µM in assay [2]; greater than 30 µM in [3]; greater than 30 µM in [4]; greater than 30 µM in assay [5]. The AC50 is greater than 10 µM in assay [9] and greater than 30 µM in assay [10].

As for `Cc1cc(C)c(NC(=O)CN(CC(=O)O)CC(=O)O)c(C)c1Br` [MEBROFENIN], the AC50 in assay [6], in assay [7], in assay [8], in [9] and in assay [12] was greater than 30 µM in each case.

`CCCC1O[C@@H]2C[C@H]3[C@@H]4CCC5=CC(=O)C=C[C@]5(C)[C@H]4[C@@H](O)C[C@]3(C)[C@]2(C(=O)CO)O1` (some centres undefined) [BUDESONIDE]: the half-maximal activity concentration (AC50) in assay [2], in assay [3], in [8], in [4], in [5] and in assay [9] was greater than 10 µM each time. In addition, the AC50 in assay [10] and in assay [11] was greater than 10 µM throughout.

As for `COC1=C(OC)C(=O)C(C/C=C(\C)CC/C=C(\C)CC/C=C(\C)CC/C=C(\C)CC/C=C(\C)CC/C=C(\C)CC/C=C(\C)CC/C=C(\C)CC/C=C(\C)CCC=C(C)C)=C(C)C1=O` [UBIDECARENONE], the AC50 in assay [6], in [7], in assay [8], in assay [9], in assay [12] and in assay [11] was greater than 30 µM each time.

In the case of `Cc1oc(=O)oc1CN1CCN(c2cc3c(cc2F)c(=O)c(C(=O)O)c2n3C(C)S2)CC1` (centres undefined) [PRULIFLOXACIN], the AC50 in [6], in assay [7], in [8], in assay [9] and in assay [12] was greater than 30 µM in each case.

The values above are taken from ChEMBL document CHEMBL5291721, “A preclinical secondary pharmacology resource illuminates target-adverse drug reaction associations of marketed drugs” (Nat Commun, 2023).
